Results: paper PMC9607537, “Understanding the Antilymphoma Activity of Annona macroprophyllata Donn and Its Acyclic Terpenoids: In Vivo, In Vitro, and In Silico Studies” (Molecules, 2022)
Like-named read-outs stand apart in the source and are kept apart here.

What was measured:
U-937 cells = assay: cells; details: read-out: CC50 (median cytotoxic concentration causing 50% cell death)
Method: The cell line U-937 was acquired (ATCC: CRL 1593.2, Middlesex, UK) and characterized as a type of diffuse monocytic NHL; for its propagation two million cells were used and seeded in RPMI 1640 medium (Roswell Park Memorial Institute) supplemented with 2 mM L-glutamine, 10% v/v fetal bovine serum (Thermo), 100 mM 1% sodium pyruvate, and 1% penicillin/streptomycin. The cells were kept in an atmosphere with a concentration of carbon dioxide (CO2) at 5% at 37 °C.
We evaluated the in vitro cytotoxic activity using the cell proliferation reagent WST-1, based on the cleavage of tetrazolium salts to formazan by the enzyme mitochondrial dehydrogenase. For cell proliferation, the Quick Cell Proliferation Kit II (Abcam, Cambridge, UK, Cat. No. ab65475) was used, 96-well plates were used and 2 × 10^5 cells per well were seeded in a final volume of 100 µL/well of culture medium. […] After 24 h, viability was assessed by the addition of 10 µL of WST-1 reagent and the cells were further incubated for 2 h at 37 °C and 5% CO2. Finally, the absorbance at 440 nm was measured using a microplate reader.

[1] = test system: lymph node growth in mice inoculated with U-937 cells; assay: Antilymphoma activity in Balb/c mice inoculated with U-937 cells; format: in vivo; details: oral, 9 days treatment, mean ± SEM, n = 6; for ED50 Female (inhibition of lymph node growth): female Balb/c mice inoculated with U-937 cells; for ED50 Male (inhibition of lymph node growth): male Balb/c mice inoculated with U-937 cells
From the text: We induced lymphoma following the method of Calzada et al.. We randomly formed fifteen groups of male mice and of female mice (n = 6). […] After cell inoculation, we observed all animals for the following 28 days, after which we orally administered treatments for 9 days. Over the following 28 days, we recorded the weight and survival of the animals. Finally, at day 65, we sacrificed the animals and removed and weighed the left and right axillary and inguinal lymph nodes.

Artemia salina larvae = assay: Brine shrimp lethality (BSL) test; format: in vivo; details: mortality at 24 h, mean ± SEM
Method: To obtain the LD50 of the thirteen compounds isolated by TLC, we performed the brine shrimp assay according to the procedure described by Meyer et al.. We exposed groups of 10 shrimp in brine to concentrations of 0.5, 1, 5, 10 µg mL^−1 of each product (P1-P13). The concentrations were reached by dissolving the compounds in 2 mL of ethanol, subsequently transferring to different flasks. After evaporating the solvent at room temperature, we introduced the BS and adjusted the volume with artificial seawater to 5 mL. We performed this test in triplicate for each compound.

in vivo = details: female, Balb/c, mouse, in vivo, po
Method: (§1) Twenty-four female mice of the Balb/c strain were randomly used to form 8 groups (n = 3). […] The control group was administered with only the vehicle (Tween 80 at 2% in water) and for the compounds, doses of 500 and 1000 mg kg^−1 were administered. […] Subsequently, we sacrificed the animals and extracted the organs (stomach, intestines, spleen, liver, and kidneys) were extracted, reporting the pathological changes, if any.

Balb/c mice = assay: in vivo; details: for TI Female (therapeutic index, LD50/ED50) / TI Male (therapeutic index, LD50/ED50): LD50 acute oral toxicity / ED50 antilymphoma activity; for TI Female (therapeutic index, LD50/ED50): female mice; for TI Male (therapeutic index, LD50/ED50): male mice; for OECD acute systemic toxicity category: acute oral toxicity, OECD guideline 423; for OECD acute systemic toxicity category / Mortality in acute oral toxicity test: mice; for Mortality in acute oral toxicity test: until end of study (14 days)
Method: as §1

U-937 cell line = test system: U-937 cell line; set-up: method as in PMID 34638856; details: viability analysis by flow cytometry; cited from earlier work

| Compound | CC50 (U-937 cells; Homo sapiens, U-937, 24 h) | ED50 Female (inhibition of lymph node growth) [1] | ED50 Male (inhibition of lymph node growth) [1] | LD50 (median lethal dose causing 50% of A. salina death) (Artemia salina larvae; n = 3, listed as AF) | LD50 (median lethal dose causing 50% of A. salina death) (Artemia salina larvae; n = 3, listed as FA (P10)) | LD50 at 14 days (in vivo) | TI Female (therapeutic index, LD50/ED50) (Balb/c mice) | TI Male (therapeutic index, LD50/ED50) (Balb/c mice) | OECD acute systemic toxicity category (Balb/c mice) | TI (therapeutic index) in both sexes (Balb/c mice) | Mortality in acute oral toxicity test (Balb/c mice; single oral dose) | LD50 (median lethal dose causing 50% of A. salina death) (Artemia salina larvae; n = 3) | CC50 (U-937 cell line) | CC50 (U-937 cells; U-937 cells, 24 h exposure, WST-1, mean ± SEM, n = 3) | LD50 (median lethal dose, acute oral toxicity) (Balb/c mice; female Balb/c mice, single oral dose, 14 days observation, n = 3) |
| --- | --- | --- | --- | --- | --- | --- | --- | --- | --- | --- | --- | --- | --- | --- | --- |
| CC(=O)OC/C=C(\C)CC/C=C(\C)CCC=C(C)C [FA, [(E,E)-3,7,11-trimethyldodeca-2,6,10-trienyl] acetate] | 275 ± 80 µM | 5.89 ± 0.39 mg/kg | 5.09 ± 0.66 mg/kg | 5.82 ± 0.58 µg/mL | 5.82 ± 0.58 µg/mL | > 1000 mg/kg | 169.77 | 196.46 | category 4 (category 4, low risk > 300 and ≤2000 mg/kg) | > 100 | did not cause mortality | – | – | – | – |
| CC(C)=CCC/C(C)=C/CC/C(C)=C/CC/C(C)=C/CO [Gg, (2E,6E,10E)-3,7,11,15-tetramethylhexadeca-2,6,10,14-tetraen-1-ol] | 395 ± 5 µM | 7.22 ± 0.51 mg/kg | 6.98 ± 0.57 mg/kg | – | – | 742.17 ± 0.34 mg/kg | 138.5 | – | category 4 (category 4, low risk > 300 and ≤2000 mg/kg) | > 100 | caused death in the animals | 1.41 ± 0.42 µg/mL | – | – | – |
| CN(Cc1cnc2nc(N)nc(N)c2n1)c1ccc(C(=O)N[C@@H](CCC(=O)O)C(=O)O)cc1 [MTX, methotrexate, reference compound] | 243 ± 7 µM | 1.31 ± 0.34 mg/kg | 0.99 ± 0.024 mg/kg | – | – | 335 ± 0.39 mg/kg | – | – | – | – | – | – | 0.5 µM | – | – |
| (2E,7R,11R)-3,7,11,15-tetramethylhexadec-2-en-1-ol [PT] | – | 6.71 ± 0.31 mg/kg | 5.83 ± 0.50 mg/kg | – | – | – | 149.03 | 171.52 | category 4 (category 4, low risk > 300 and ≤2000 mg/kg) | > 100 | did not cause mortality | 3.03 ± 0.33 µg/mL | – | 296 ± 70 µM | >1000 mg/kg |
